Data as given in BindingDB's records for doi:10.1021/jm00010a019 (Boehringer Ingelheim Pharmaceuticals, 1995).

Molecular target: T1, Renin (Homo sapiens, UniProt P00797)
T1 sequence (P00797 whole entry): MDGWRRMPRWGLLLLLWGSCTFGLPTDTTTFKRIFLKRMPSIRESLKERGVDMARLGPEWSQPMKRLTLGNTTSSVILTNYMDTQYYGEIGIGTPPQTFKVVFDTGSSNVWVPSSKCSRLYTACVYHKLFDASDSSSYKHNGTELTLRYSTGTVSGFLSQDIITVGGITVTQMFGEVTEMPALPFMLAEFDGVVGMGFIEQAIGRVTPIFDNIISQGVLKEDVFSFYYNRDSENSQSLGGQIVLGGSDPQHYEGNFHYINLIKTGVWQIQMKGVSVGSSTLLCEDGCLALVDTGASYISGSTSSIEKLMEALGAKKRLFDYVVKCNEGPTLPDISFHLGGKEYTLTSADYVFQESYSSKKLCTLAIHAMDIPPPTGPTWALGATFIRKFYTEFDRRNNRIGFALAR
Test: Component acylation rate constant by the compound against Renin was determined

| SMILES | koff [s⁻¹] |
| --- | --- |
| CC(C)C[C@H](O)[C@H](O)[C@H](CC1CCCCC1)NC(=O)[C@@H](CC(=O)N(CC(=O)N(C)CCc1ccccn1)CC1CCCCCC1)Cc1csc(N)n1 [(R)-2-(2-Amino-thiazol-4-ylmethyl)-N*4*-cycloheptylmethyl-N*1*-((1S,2R,3S)-1-cyclohexylmethyl-2,3-dihydroxy-5-methyl-hexyl)-N*4*-{[methyl-(2-pyridin-2-yl-ethyl)-carbamoyl]-methyl}-succinamide] | 0.000234 |
| CC(C)C[C@H](O)[C@H](O)[C@H](CC1CCCCC1)NC(=O)[C@@H](CC(=O)N(CC(=O)N(C)CCc1ccccn1)CC1CCCCC1)Cc1csc(N)n1 [2-(2-Amino-thiazol-4-ylmethyl)-N*4*-cyclohexylmethyl-N*1*-(1-cyclohexylmethyl-2,3-dihydroxy-5-methyl-hexyl)-N*4*-{[methyl-(2-pyridin-2-yl-ethyl)-carbamoyl]-methyl}-succinamide(BILA 2157 BS)] | 0.00028 |
| COC1(CN(CC(=O)N(C)CCc2ccccn2)C(=O)C[C@@H](Cc2csc(N)n2)C(=O)N[C@@H](CC2CCCCC2)[C@@H](O)[C@@H](O)CC(C)C)CCCCC1 [(R)-2-(2-Amino-thiazol-4-ylmethyl)-N*1*-((1S,2R,3S)-1-cyclohexylmethyl-2,3-dihydroxy-5-methyl-hexyl)-N*4*-(1-methoxy-cyclohexylmethyl)-N*4*-{[methyl-(2-pyridin-2-yl-ethyl)-carbamoyl]-methyl}-succinamide] | 0.00175 |

More lines, now with the values ahead:

| koff [s⁻¹] | SMILES |
| --- | --- |
| 0.00133 | CC(C)C[C@H](O)[C@H](O)[C@H](CC1CCCCC1)NC(=O)[C@@H](CC(=O)N(CC(=O)N(C)CCN(C)C(=O)N1CCOCC1)[C@@H](C)c1ccccc1)Cc1csc(N)n1 [(R)-2-(2-Amino-thiazol-4-ylmethyl)-N*1*-((1S,2R,3S)-1-cyclohexylmethyl-2,3-dihydroxy-5-methyl-hexyl)-N*4*-[(methyl-{2-[methyl-(morpholine-4-carbonyl)-amino]-ethyl}-carbamoyl)-methyl]-N*4*-((S)-1-phenyl-ethyl)-succinamide] |
| 0.00481 | CC(C)C[C@H](O)[C@H](O)[C@H](CC1CCCCC1)NC(=O)[C@@H](CC(=O)N(CC(=O)N(C)CCN1CCOCC1)[C@@H](C)c1ccccc1)Cc1csc(N)n1 [(R)-2-(2-Amino-thiazol-4-ylmethyl)-N*1*-((1S,2R,3S)-1-cyclohexylmethyl-2,3-dihydroxy-5-methyl-hexyl)-N*4*-{[methyl-(2-morpholin-4-yl-ethyl)-carbamoyl]-methyl}-N*4*-((S)-1-phenyl-ethyl)-succinamide] |
| 0.00135 | CC(C)C[C@H](O)[C@H](O)[C@H](CC1CCCCC1)NC(=O)[C@@H](CC(=O)N(CC(=O)N(C)CCc1ccccn1)[C@@H](C)c1ccccc1)Cc1csc(N)n1 [(R)-2-(2-Amino-thiazol-4-ylmethyl)-N*1*-((1S,2R,3S)-1-cyclohexylmethyl-2,3-dihydroxy-5-methyl-hexyl)-N*4*-{[methyl-(2-pyridin-2-yl-ethyl)-carbamoyl]-methyl}-N*4*-((S)-1-phenyl-ethyl)-succinamide] |
| 0.0013 | CC(C)C[C@H](O)[C@H](O)[C@H](CC1CCCCC1)NC(=O)[C@@H](CC(=O)N(CC(=O)N(C)CCC(=O)N1CCOCC1)[C@@H](C)c1ccccc1)Cc1csc(N)n1 [(R)-2-(2-Amino-thiazol-4-ylmethyl)-N*1*-((1S,2R,3S)-1-cyclohexylmethyl-2,3-dihydroxy-5-methyl-hexyl)-N*4*-{[methyl-(3-morpholin-4-yl-3-oxo-propyl)-carbamoyl]-methyl}-N*4*-((S)-1-phenyl-ethyl)-succinamide] |
| 0.000569 | CC(C)C[C@H](O)[C@H](O)[C@H](CC1CCCCC1)NC(=O)[C@@H](CC(=O)N(CC(=O)N(C)CCc1ccccn1)CC1(C)CCCCC1)Cc1csc(N)n1 [(R)-2-(2-Amino-thiazol-4-ylmethyl)-N*1*-((1S,2R,3S)-1-cyclohexylmethyl-2,3-dihydroxy-5-methyl-hexyl)-N*4*-(1-methyl-cyclohexylmethyl)-N*4*-{[methyl-(2-pyridin-2-yl-ethyl)-carbamoyl]-methyl}-succinamide] |
